Reference: patent US20160309764A1, “FOOD COMPOSITION COMPRISING FERROUS PICOLINATE” (NESTEC S.A., priority 2013, published 2016)
Entries after “also recorded” stand apart in the source; their conditions may differ.

Legend:
[1] = Colour difference of iron fortified strawberry-banana yoghurt after flash pasteurization versus yoghurt with no iron salts (CIELAB); type: physicochemical; conditions: approx. 0.8 mg iron per 100 g, pasteurized at 105° C. for 2 minutes
Protocol: Commercial yoghurt, Nestlé Jogolino™ Strawberry/Banana yoghurt containing 15% banana puree and 10% strawberry puree was iron fortified by the addition of different iron salts to 5 kg yoghurt as reported in the table below. The amounts were chosen to provide approximately 0.8 mg iron per 100 g yoghurt. […] Colour measurements were performed in 1×1 cm polystyrene cuvettes using an X-Rite ColorEye 7000A colorimeter. The colorimeter was set up with a D65 light source, 10 degree observer angle and with specular component included. The colour difference between the yoghurt with no iron salts and the iron fortified yoghurt was measured for each iron salt and expressed as ΔEab* using the CIELAB colour scale.

[2] = Colour change of fortified pasteurized yoghurts on storage at 37° C. versus colour immediately after pasteurization (CIELAB); type: physicochemical; conditions: stored at 37° C.; for ΔEab* day 7: day 7, versus colour immediately after pasteurization; for ΔEab* day 30: day 30, versus colour immediately after pasteurization; for ΔEab* day 60: day 60, versus colour immediately after pasteurization; for ΔEab* day 120: day 120, versus colour immediately after pasteurization

Compound | ΔEab* [1] | ΔEab* ([1]; listed as ferrous picolinate) | ΔEab* day 7 [2] | ΔEab* day 30 [2] | ΔEab* day 60 [2] | ΔEab* day 120 [2] | colour change over time ([2]; up to 120 days, compared with the other iron salts) | ΔEab* day 30 ([2]; listed as ferrous sulphate)
Ferrous picolinate | 1.28 | closer in colour to unfortified yoghurts; also recorded: closest colour to the yoghurt with no added iron | 0.51 | 2.18 | 4.66 | 8.19 | smaller than the yoghurts fortified by the other iron salts | –
O=C([O-])CN(CCN(CC(=O)[O-])CC(=O)[O-])CC(=O)[O-].[Fe+3].[Na+] [NaFeEDTA × H2O, ferric sodium EDTA] | 3.11 | – | 0.96 | 4.16 | 6.93 | 9.37 | – | –
O=S(=O)([O-])[O-].[Fe+2] [FeSO4 × H2O, Ferrous sulphate] | 4.74 | – | 0.78 | 3.27 | 5.91 | 10.34 | – | much greater colour changes
